Data from patent US20250082585A1, “METHOD FOR STORING REDUCED COENZYME Q10” (KANEKA CORPORATION, priority 2021, published 2025).

Assay: Evaluation of oxidation stability (QH residual rate after storage, QH ratio by HPLC)
Assay type: physicochemical
Protocol: The weight ratio of reduced coenzyme Q10 to total coenzyme Q10 (namely, reduced coenzyme Q10/(oxidized coenzyme Q10+reduced coenzyme Q10)) is defined as “QH ratio”. The QH ratio was determined by the following HPLC analysis. For the evaluation of oxidation stability, a rate of the change in the QH ratio at the end of the evaluation from that at the beginning of the evaluation was defined as “QH residual rate”, and the QH residual rate determined by the following expression was used as a measure of oxidation stability.
QH residual rate (%)=100×QH ratio at the end of the evaluation/QH ratio at the beginning of the evaluation […]
In a glass vial (volume 33 ml), 0.1 g of the QH Form I crystal was placed. […] The glass vial was sealed, and stored under a temperature of 40° C. and a relative humidity of 75% for 2 weeks, after which the QH residual rate was determined.
In a glass vial, 0.2 g of the QH Form I crystal was placed. The glass vial was opened, and stored under a temperature of 40° C. and a relative humidity of 11% for 2 weeks, after which the QH residual rate was determined.
In a glass vial (volume 33 ml), 0.1 g of the QH Form I crystal was placed. […] The glass vial was sealed, and stored under a temperature of 25° C. and a relative humidity of 60% for 4 weeks, after which the QH residual rate was determined. […]

| SMILES | QH residual rate (0.2 g QH Form I crystal without water, opened glass vial, 40° C., relative humidity 11%, 2 weeks) | QH residual rate (0.1 g QH Form I crystal, with aqueous solution of Table 3 or without (comparative), sealed glass vial, 25° C., relative humidity 60%, 4 weeks) |
| --- | --- | --- |
| COc1c(O)c(C)c(C/C=C(\C)CC/C=C(\C)CC/C=C(\C)CC/C=C(\C)CC/C=C(\C)CC/C=C(\C)CC/C=C(\C)CC/C=C(\C)CC/C=C(\C)CCC=C(C)C)c(O)c1OC [Comparative Example 1, reduced coenzyme Q10] | 34.9% | – |
| COc1c(O)c(C)c(C/C=C(\C)CC/C=C(\C)CC/C=C(\C)CC/C=C(\C)CC/C=C(\C)CC/C=C(\C)CC/C=C(\C)CC/C=C(\C)CC/C=C(\C)CCC=C(C)C)c(O)c1OC [Comparative Example 2, reduced coenzyme Q10] | – | 33.3% |
